The IC50 is the concentration at which inhibition is half-maximal. A high value points to weaker potency.

From ChEMBL document CHEMBL1122576 (J Med Chem, 1984) come the findings set out here.

The subject of assay [1] is Rattus norvegicus. Description: Dose that decreased sorbitol accumulation by 50% in the sciatic nerve in the galactosemic rat model after administration for 3 weeks in the diet. The assay is classed as functional.
For assay [2], the system named is Rattus norvegicus. Description: Dose that decreased galactitol accumulation by 50% in the sciatic nerve in the galactosemic rat model after administration for 4 days in the diet. The format is functional.
Assay [3] deals with Aldo-keto reductase family 1 member B1 (Bos taurus, UniProt P16116). Put plainly: Inhibition of bovine lens aldose reductase with DL-glyceraldehyde as substrate.
Assay [4] concerns Rattus norvegicus. Put plainly: Dose that decreased galactitol accumulation by 50% in the sciatic nerve in the galactosemic rat model after administration for 4 days in the diet; 7.3+/-2.3 mg/(kg day). The format is functional.
Assay [5] relates to Rattus norvegicus. Description: Dose that decreased sorbitol accumulation by 50% in the sciatic nerve in the galactosemic rat model after administration for 3 weeks in the diet; 4.8+/- 2.4 mg/(kg day). The assay is classed as functional.

On to `O=C(O)CN1C(=O)c2cccc3cccc(c23)C1=O` [ALRESTATIN], for which the Dose in assay [1] was around 1000 mg/kg/day; in assay [2], around 900 mg/kg/day. The compound further gave an IC50 in assay [3] of 2.7 µM.

`COc1ccc2c(C(=S)N(C)CC(=O)O)cccc2c1C(F)(F)F` [TOLRESTAT]: the Dose in assay [4] turned out to be 7.3 mg/kg/day; in assay [5], 4.8 mg/kg/day.
